What follows are compounds tested against T1, purified recombinant human SYK360-635 (Homo sapiens, UniProt P43405) (assay: SYK kinase assay: 33P γATP incorporation into biotinylated peptide substrate, IC50 determination). Conditions: SYK 0.5 nM, ATP 20 μM, DYE peptide 5 μM, 30° C. 15 min; read-out: IC50 h-syk-gst-sf9-c (inactive-dephosphorylated).
T1 construct: truncated construct of Spleen Tyrosine Kinase aa 360-635; GST; made in house
Assay type: biochemical
Method: Determination of IC50 of Spleen Tyrosine Kinase (SYK) Inhibition:
SYK kinase assay is a standard kinase assay adapted to a 96 well plate format. This assay is performed in 96-well format for IC50 determination with […] which represented 10 half log dilutions and a 40 μL reaction volume. The assay measures the incorporation of radiolabeled ^33P γATP into an N-terminally biotinylated peptide substrate, derived from naturally occurring phosphoacceptor consensus sequence (Biotin-11aa DY*E). Phosphorylated products were detected upon termination of reactions with EDTA and the addition of Streptavidin coated beads.
Assay plates: 96-well MultiScreen 0.65 um filter plates (Millipore Cat. No.: MADVNOB10)
BSA: Bovine Serum Albumin Fraction V, fatty acid free (Roche Diagnostics GmbH, Cat. No. 9100221) diluted to a final concentration of 0.1%
Assay Dilution Buffer (ADB): 50 mM HEPES, 0.1 mM EGTA, 0.1 mM Na Vanadate, 0.1 mM β-glycerophosphate, 10 mM MgCl2, 1 mM DTT, 0.1% BSA, pH 7.5
Bead wash buffer: 10 g/L PBS (Phosphate buffered saline) with 2M NaCl+1% phosphoric acid.
DMSO and the mixture was incubated for 10 min at RT.
The kinase reaction was initiated by the addition of 10 μL 4× substrate cocktail containing the DYE peptide substrate [0 or 5 μM], ATP [20 μM] and ^33PγATP [2 μCi/r×n]. After incubation at 30° C. for 15 min, the reaction was terminated by the transfer of 25 μL of the reaction sample to a 96 well 0.65 μm Millipore MADVNOB membrane/plate containing 200 μL 5 mM EDTA and 20% Streptavidine coated beads in PBS.
After the last wash membrane/plates were transferred to an adaptor plate, heat dried for 15 min at 60° C., and 50 μL scintillation cocktail was added to each well and 4 h later the amount of radioactivity was counted in a top counter.

| SMILES | IC50 |
| --- | --- |
| COc1ccc(Nc2nc(N3CCCC(C(=O)Nc4ccc5c(c4)CNC5=O)C3)nc3scnc23)cc1OC (stereo not shown) [Compound I-46, 1-(7-(3,4-Dimethoxyphenylamino)thiazolo[5,4-d]pyrimidin-5-yl)-N-(1-oxoisoindolin-5-yl)piperidine-3-carboxamide] | 1.03 µM |
| COc1ccc(Nc2nc(N3CCC(NC(=O)c4cnccn4)C3)nc3scnc23)cc1OC (stereo not shown) [Compound I-12, N-(1-(7-(3,4-Dimethoxyphenylamino)thiazolo[5,4-d]pyrimidin-5-yl)pyrrolidin-3-yl)pyrazine-2-carboxamide] | 0.933 µM |
| C[C@H]1CCCN1c1cccc(Nc2nc(N3CCCC(O)C3)nc3scnc23)c1 (stereo partly drawn) [Compound I-59, 1-(7-(3-((S)-2-Methylpyrrolidin-1-yl)phenylamino)thiazolo[5,4-d]pyrimidin-5-yl)piperidin-3-ol] | 0.757 µM |
| COc1ccc(Nc2nc(N3CCC(NC(=O)c4ccc(C(=O)O)cc4)C3)nc3scnc23)nc1OC (stereo not shown) [Compound I-55, 4-(1-(7-(5,6-Dimethoxypyridin-2-ylamino)thiazolo[5,4-d]pyrimidin-5-yl)pyrrolidin-3-ylcarbamoyl)benzoic acid] | 6.15 µM |
| COc1ccc(-c2nc(Nc3cccc(N4CCC[C@@H]4C)c3)c3ncsc3n2)cn1 [Compound I-61, (S)-5-(6-Methoxypyridin-3-yl)-N-(3-(2-methylpyrrolidin-1-yl)phenyl)thiazolo[5,4-d]pyrimidin-7-amine] | 1.04 µM |
| COc1ccc(Nc2nc(N3CCC(NC(=O)c4ccc(C(=O)O)nc4)C3)nc3scnc23)cc1OC (stereo not shown) [Compound I-39, 5-(1-(7-(3,4-Dimethoxyphenylamino)thiazolo[5,4-d]pyrimidin-5-yl)pyrrolidin-3-ylcarbamoyl)picolinic acid] | 0.129 µM |
| COc1ccc(Nc2nc(N3CCC(NC(=O)c4ccc5cn[nH]c5c4)C3)nc3scnc23)cc1OC (stereo not shown) [Compound I-11, N-(1-(7-(3,4-Dimethoxyphenylamino)thiazolo[5,4-d]pyrimidin-5-yl)pyrrolidin-3-yl)-1H-indazole-6-carboxamide] | 0.406 µM |
| O=C(O)c1cccc(-c2nc(Nc3cccc(N4C[C@H]5CC[C@@H](C4)O5)c3)c3ncsc3n2)c1 [Compound I-34, 3-{7-[(1R,5S)-3-(8-Oxa-3-aza-bicyclo[3.2.1]oct-3-yl)-phenylamino]-thiazolo[5,4-d]pyrimidin-5-yl}-benzoic acid] | 2.47 µM |

Further lines, results first:

| IC50 | SMILES |
| --- | --- |
| 0.98 µM | COc1ccc(Nc2nc(-c3cccc(C(=O)Nc4ccc5[nH]ncc5c4)c3)nc3scnc23)cc1OC [Compound I-18, 3-[7-(3,4-Dimethoxy-phenylamino)-thiazolo[5,4-d]pyrimidin-5-yl]-N-(1H-indazol-5-yl)-benzamide] |
| 4.61 µM | CS(=O)(=O)c1cccc(Nc2nc(-c3cccc(C(=O)O)c3)nc3scnc23)c1 [Compound I-27, 3-[7-(3-Methanesulfonyl-phenylamino)-thiazolo[5,4-d]pyrimidin-5-yl]-benzoic acid] |
| 0.012 µM | COc1ccc(Nc2nc(-c3cccc(C(=O)Nc4ccc(C(=O)O)c(OC)c4)c3)nc3scnc23)cc1OC [Compound I-16, 4-(3-(7-(3,4-Dimethoxyphenylamino)thiazolo[5,4-d]pyrimidin-5-yl)benzamido)-2-methoxybenzoic acid] |
| 0.233 µM | COc1ccc(Nc2nc(-c3cccc(C(N)=O)c3)nc3scnc23)cc1OC [Compound I-68, 3-[7-(3,4-Dimethoxy-phenylamino)-thiazolo[5,4-d]pyrimidin-5-yl]-benzamide] |
| 0.053 µM | COc1ccc(Nc2nc(-c3cccc(C(=O)Nc4ccc(C5SC(=O)NC5=O)cc4)c3)nc3scnc23)cc1OC (stereo not shown) [Compound I-63, 3-[7-(3,4-Dimethoxy-phenylamino)-thiazolo[5,4-d]pyrimidin-5-yl]-N-[4-(2,4-dioxo-thiazolidin-5-yl)-phenyl]-benzamide] |
| 0.113 µM | COc1ccc(Nc2nc(-c3ccc(C(N)=O)cc3)nc3scnc23)cc1OC [Compound I-64, 4-[7-(3,4-Dimethoxy-phenylamino)-thiazolo[5,4-d]pyrimidin-5-yl]-benzamide] |
| 1.49 µM | COc1ccc(Nc2nc(-c3cccc(CNc4ccc(C(=O)OC(C)(C)C)cc4)c3)nc3scnc23)cc1OC [Compound I-29, tert-Butyl 4-(3-(7-(3,4-dimethoxyphenylamino)thiazolo[5,4-d]pyrimidin-5-yl)benzylamino)benzoate] |
| 0.111 µM | COc1ccc(Nc2nc(N3CCC(NC(=O)c4ccc(C(=O)O)c(OC)c4)C3)nc3scnc23)cc1OC (stereo not shown) [Compound I-10, 4-(1-(7-(3,4-Dimethoxyphenylamino)thiazolo[5,4-d]pyrimidin-5-yl)pyrrolidin-3-ylcarbamoyl)-2-methoxybenzoic acid] |

Source: patent US8921383B2, “Thiazolopyrimidine compounds” (Hoffmann-La Roche Inc., priority 2011, dated 2014)
